Assay results as given in US20080269163A1, “Methods and Compositions for Protecting Cells from Ultrasound-Mediated Cytolysis” (priority 2004, published 2008).
“Also recorded” adds a separate entry of the source.

Assays:
[1] = system: HL-60 cells; test: Ultrasound-induced cytolysis of HL-60 cells, Coulter counter analysis; format: cell-based; conditions: HL-60 cells
Description: Cells: HL-60 myeloid leukemia cells (American Type Culture Collection) were grown in a suspension of RPMI 1640 medium (GIBCO, Gaithersburg, Md.) containing 10% calf serum. The population of HL-60 cells doubled every 23±1 hr (hour ±SEM) when incubated at 37° C. in a CO2 (5%) containing atmosphere. Cells were harvested, re-suspended in fresh RPMI medium and kept at 25° C. until the start of the experiment (typically less than 1 hr). […] The fraction of intact cells before and after ultrasound was determined using a Coulter multisizer (model IIe) connected to a sampling stand (model IIa). The number of intact cells was determined by counting the total number of particles under the bell shaped curve (e.g., FIG. 1a) before and following sonolysis. The cytolysis percentage was determined by subtracting the number of intact cells following sonolysis from the number of intact cells before sonolysis. This value was divided by the number of intact cells before sonolysis and multiplied by 100 to obtain the cytolysis percentage value.
The temperature of the coupling water was 25° C.
We have confirmed the validity of this technique for studying the effects of sonolysis in our ultrasound system by the trypan blue exclusion assay. The mean size of HL-60 cells was determined from the Coulter counter results prior to sonolysis and was approximately 650 μm3 (FIG. 1a) which equates to a mean cell diameter of […].
42 kHz sonolysis was conducted in a similar way but using a Branson ultrasound bath (model number 1510). […] At 42 kHz, a transducer was used to decrease the power of the bath to 50% of its original value. The temperature of the coupling water at all frequencies was 25° C.
(§1) The percentage of cytolysis of HL-60 cells was determined by measurement of the cell size distribution using a Coulter multisizer. This method correlates well with percentage cytolysis measured using the Trypan blue exclusion assay immediately following sonolysis and is explained in detail elsewhere (Miyoshi, N. et al. 2003). […] This immediate ultrasound induced cytolysis (i.e., % cytolysis) is represented in FIGS. 2, 10-12 at a concentration of zero.
42 kHz sonolysis was conducted in a similar way but using a Branson ultrasound bath (model number […]). […] At 42 kHz, a transducer was used to decrease the power of the bath to 50% of its original value. The temperature of the coupling water at all frequencies was 25° C.
as §1, with “represented” for “represented in FIGS. 2, 10-12”

[2] = system: HL-60 cells; test: Reproduction assay of HL-60 cells following sonolysis; format: cell-based; conditions: sonolysis, 5 seconds, 10 W; varying concentrations
Description: Cells were allowed to reproduce for 24 hours. Reproduction fraction ±SD (where n=6 to 8) is calculated by dividing the number of cells counted following 24 hours of reproduction by the number of cells counted at the start of incubation.
Control data points were run in triplicate with a standard deviation of less than 10%. Sonolysis points represent an average of six separate cell suspensions, with a standard deviation of less than 10%.
The reproduction ratio is the number of cells present one or two days post treatment divided by the number of cells present on the treatment day.
Reproduction Assay: for FIG. 5, a reproduction assay was conducted over a period of 10 days to determine the long term viability of cells following ultrasound treatment in the presence of either HGP or OGP at concentrations where 100% protection from cytolysis occurred. The long term viability of treated cell suspensions was compared to the long term viability of untreated control cell suspensions held under exactly the same conditions (FIG. 5). Immediately following sonolysis, a 100 μl aliquot of the 1 ml treated (or control) samples was used for Coulter counter analysis in order to confirm that 100% of the cells had survived the ultrasound treatment. Viability of the cells was determined by using a very small volume (approx. 20 μl) of suspension for trypan blue staining. The remaining ≈0.9 ml cell suspensions were diluted to 3 ml with fresh medium, centrifuged, washed with fresh medium, and finally re-suspended in fresh medium (2 ml). 100 μl of this new 2 ml of cells suspended in fresh medium was then used to determine the cell concentration. This cell concentration is defined as ‘the cell concentration at Day 0 after ultrasound treatment’ (Ci). Cell suspensions were then kept at 37° C. in a 5% CO2 incubator for a total of 10 days.
Over the 10 day period, cells had to be spun down occasionally and re-suspended in fresh medium to replenish the nutrients necessary for a healthy cell population. 100 μl aliquots of the original cell suspension were used to measure the cell concentration both before (Cfinal) and following (Cinitial) re-suspension in fresh medium. This procedure, although necessary, results in a slight underestimation in the expected number of cells on any given day, when compared to the original cell concentration, Ci. To account for this small, but significant underestimation, we calculated the actual number of cells that would have been observed had we not been periodically extracting small aliquots for the detection of cell numbers by the Coulter counter. This was done by calculating a ‘reproduction ratio’, determined by dividing Cfinal by Cinitial that was measured one or two days earlier and comparing this ratio to (Ci), to give a ‘real cell population’. It should be noted that this calculation is done simply as a matter of convenience and that the reproduction ability of the treated samples was compared to control samples that were treated in the same way over the day period, as shown in FIG. 5. Verification of this method is given by the fact that the cells of the control samples double approximately every day (FIG. 5), as expected for HL-60 cells under the conditions of incubation in the current study.

[3] = system: HL-60 cells; test: Mechanical fragility test (Burrell wrist action shaker, glass beads), HL-60 cells; format: cell-based
Description: 10 ml borosilicate glass beads in a 125 ml conical flask. 10 ml cell suspension in the presence and absence (control) of various glucopyranosides (HGP, HepGP, MGP, and OGP) in a cell culture medium containing 10% DPBS solution. Shaking was conducted over a period of 30 minutes. Each data point represents ±SD, where n=5.
Mechanical Fragility Test: the effect of glucopyranosides on the mechanical fragility of the cells was determined by inducing mechanical shear stress to a cell suspension. This involved placing 10 mL of HL-60 cells in suspension in 125 ml sized screw capped conical flasks containing 10 mL of borosilicate solid-glass beads (Sigma-Aldrich, mean particle diameter of 3 mm), similar to the methods described elsewhere (Carstensen, E. L. et al. 1993; Miller, M. W. et al. 2003). The samples were then shaken in a Burrell wrist action shaker (model number 75, Burrell Scientific, Pittsburgh, Pa.) at 50% power for a duration of 30 minutes. Using this method, up to eight sample solutions could be run at one time. […] In samples containing glucopyranosides, the surfactant was dissolved in 1 ml of DPBS and added to 9 ml of the cell suspension.

[4] = system: HL-525 cells; test: Sonolysis of HL-525 cells, % cytolysis; format: cell-based; conditions: 5 sec
Description: Conditions: 42 kHz, 50% power, 5 sec, 20° C., % cytolysis ±SD (n=6).
Conditions: 354 kHz, 15 W, 5 sec, 20° C., % cytolysis ±SD (n=6).
Conditions: 614 kHz, 20 W, 5 sec, 20° C., % cytolysis ±SD (n=6).
Conditions: 1057 kHz, 10 W, 5 sec, 20° C., % cytolysis ±SD (n=6).

[5] = system: HL-525 cells; test: Mechanical fragility of HL-525 cells; format: cell-based; conditions: OGP 3 mM
Description: Conditions: 50% power, 30 min. shaking, 10 mL borosilicate glass beads, 10 mL cell suspension.

[6] = system: various cells; conditions: approximately 7 mM to 30 mM OGP for up to 30 minutes; cited from earlier work
[7] = system: HL-60 cells; test: Exposure of HL-60 cells to glucopyranosides alone (no ultrasound); conditions: 15 minute exposure at highest concentrations used
Description: Cell experiments were completed within 5 to 10 minutes of adding the glucopyranosides to the cell suspensions, and each data point represents an average ±SEM, where n=5 to 8. […] For this reason, we only studied the effects of MGP, HGP, HepGP and OGP on the ultrasound induced cytolysis of HL-60 cells.

Structure (SMILES): CCCCCCCCO[C@@H]1O[C@H](CO)[C@@H](O)[C@H](O)[C@H]1O [OGP, octyl-β-D-Glucopyranoside]
- effect on ultrasound induced cytolysis (% cytolysis) ([1]; 1.057 MHz (1 MHz), 10 W, 5 s): fully protects
- concentration giving complete (approximately 100%) protection from ultrasound induced cytolysis ([1]; 1.057 MHz (1 MHz), 10 W, 5 s, air exposed): 2 mM
- effect on ultrasound induced cytolysis ([1]; 42 kHz, 50% power, 5 s): very small sonosensitization; also recorded: weak sonosensitizer
- effect on ultrasound induced cytolysis ([1]; 354 kHz, 15 W, 5 s): weak sonosensitizer
- cell population protected from cytolysis ([1]; 614 kHz): 50%
- change of protection from cytolysis as frequency is decreased ([1]; frequency decreased from 1 MHz to 42 kHz): less effective; also recorded: most affected by the frequency of sonolysis
- reproductive viability (reproduction fraction) over 24 hours after sonolysis [2]: continue to reproduce at the same rate as untreated control samples
- protection from mechanical induced cytolysis ([3]; 30 min shaking, 50% power, HGP 1-10 mM, HepGP 0.1-10 mM, MGP 10-30 mM, OGP 0.3-3 mM): none of the glucopyranosides tested
- effect on mechanical destruction of cells ([3]; OGP 3 mM): no effect
- protective effect for HL-525 cells compared to HL-60 cells ([4]; 1 MHz (1057 kHz), 10 W): different protection effects; also recorded: smaller protective effect
- protective effect for HL-525 cells compared to HL-60 cells ([4]; 614 kHz, 20 W): much less pronounced; also recorded: smaller protective effect
- effect on mechanical destruction of cells [5]: significant effect on enhancing mechanical destruction
- cytolytic effects [6]: no cytolytic effects observed
- effect on reproduction rate of the cells over 120 hours [7]: no detrimental effect
